The text below walks through data of US8410282B2, “Compounds as adenosine A1 receptor antagonists” (Palobiofarma, S.L., priority 2007, dated 2013).

For assay [1], the target named is T1, hA1 receptors (Homo sapiens, UniProt P30542).
T1 construct: purchased Receptor Biology, Inc. (USA); host or cells: CHO cells
T1 sequence (P30542 1-326): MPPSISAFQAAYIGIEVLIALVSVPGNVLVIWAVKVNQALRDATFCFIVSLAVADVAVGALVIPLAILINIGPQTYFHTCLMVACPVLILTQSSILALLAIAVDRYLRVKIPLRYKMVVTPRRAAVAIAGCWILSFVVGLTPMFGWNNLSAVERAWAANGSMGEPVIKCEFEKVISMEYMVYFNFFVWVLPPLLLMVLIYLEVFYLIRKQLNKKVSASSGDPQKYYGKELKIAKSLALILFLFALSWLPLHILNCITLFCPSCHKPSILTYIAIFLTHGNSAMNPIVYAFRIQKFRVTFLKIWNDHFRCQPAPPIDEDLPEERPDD
The assay is described as follows: Adenosine receptor subtype competition radioligand binding assay, hA1. To be noted: membranes from hA1 receptors transfected to CHO cells, [3H]-DPCPX as radioligand, 90 min at 25° C.; read-out: A1 Antagonism (Ki nM). On the procedure: (§1) Pharmacological Activity Adenosine Receptor Subtype Competition Radioligand Binding Assay
(§2) Human membranes from recombinant adenosine receptors were purchased from Receptor Biology, Inc. (USA)
Competition assays were carried out by incubation of membranes from hA1 receptors transfected to CHO cells, [^3H]-DPCPX as radioligand, buffer (HEPES 20 mM (pH=7.4), 10 mM MgCl2, 100 mM NaCl, 2 units/ml adenosine deaminase), and unlabelled ligand in a total volume of 0.2 ml for 90 min at 25° C. R-PIA was used to determinate non-specific binding. Filter over Schleicher & Schuell GF/52 filters (pre-soaked 0.5% polyethylenimine) in a Brandel cell harvester. Unbound radioligand was removed with HEPES 30 mM (3×250 μl), NaCl (100 mM) and MgCl2 (10 mM).

In assay [2] the target is T2, hA2a receptors (Homo sapiens, UniProt P29274).
T2 construct: purchased Receptor Biology, Inc. (USA); host or cells: HEK293 cells
T2 sequence (P29274 whole entry): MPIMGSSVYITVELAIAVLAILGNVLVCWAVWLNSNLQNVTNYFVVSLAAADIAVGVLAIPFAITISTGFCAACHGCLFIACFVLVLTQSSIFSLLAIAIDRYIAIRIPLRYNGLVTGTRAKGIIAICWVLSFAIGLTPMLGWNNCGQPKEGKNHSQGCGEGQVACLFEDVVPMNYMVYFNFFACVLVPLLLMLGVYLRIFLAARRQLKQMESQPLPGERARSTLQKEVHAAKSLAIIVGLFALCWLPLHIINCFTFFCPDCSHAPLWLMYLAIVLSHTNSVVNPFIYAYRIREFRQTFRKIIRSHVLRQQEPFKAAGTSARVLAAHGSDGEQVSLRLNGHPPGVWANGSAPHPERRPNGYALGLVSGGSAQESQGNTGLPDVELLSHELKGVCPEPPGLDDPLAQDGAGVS
The experiment in a line: Adenosine receptor subtype competition radioligand binding assay, hA2a. To be noted: membranes from hA2a receptors transfected to HEK293 cells, [3H]ZM241385 as radioligand, 90 min at 25° C.; read-out: A2a Antagonism (Ki nM). The method, then: as §1, §2
Competition assays were carried out by incubation of membranes from hA2a receptors transfected to HEK293 cells, [^3H]ZM241385 as radioligand, buffer (50 mM Tris-HCl (pH=7.4), 10 mM MgCl2, 1 mM […], 2 units/ml adenosine deaminase), and unlabelled ligand in a total volume of 0.2 ml for 90 min at 25° C. NECA was used to determinate non-specific binding. Filter over Schleicher & Schuell GF/52 filters (pre-soaked 0.5% polyethylenimine) in a Brandel cell harvester. Unbound radioligand was removed with 3×3 ml ice-cold 50 mM Tris-HCl (pH=7.4), 0.9% NaCl.

The Ki is a dissociation constant, usually derived from enzyme kinetics or from competition with a known ligand. Take `N#Cc1sc(NC(=O)[C@@H]2CCC[C@H](C(=O)O)C2)nc1-c1ccccc1` (relative stereo) [Example 8, Cis-3-(5-cyano-4-phenyl-1,3-thiazol-2-ylcarbamoyl)cyclohexane Carboxylic Acid]: the Ki is 17 nM in assay [1] and greater than 1200 nM in assay [2].
On the same counts, the results for `N#Cc1sc(NC(=O)[C@@H]2CCC[C@H](C(=O)O)C2)nc1-c1ccccc1Cl` (relative stereo) [Example 26, Cis-3-[4-(2-chlorophenyl)-5-cyano-1,3-thiazol-2-ylcarbamoyl]cyclohexanecarboxylic Acid] are 31 nM and 3670 nM.
On the same counts, the results for `N#Cc1sc(NC(=O)[C@@H]2CC[C@H](C(=O)O)C2)nc1-c1ccccc1F` (relative stereo) [Example 50, Cis-3-[5-cyano-4-(2-fluorophenyl)-1,3-thiazol-2-ylcarbamoyl]cyclopentanecarboxylic Acid] are 16 nM and greater than 1300 nM.
On the same counts, the results for `N#Cc1sc(NC(=O)[C@@H]2CCC[C@H](C(=O)O)C2)nc1-c1cccc(F)c1` (relative stereo) [Example 75, Cis-3-[5-cyano-4-(3-fluorophenyl)-1,3-thiazol-2-ylcarbamoyl]cyclohexanecarboxylic Acid] are 14 nM and 1840 nM.
For `N#Cc1sc(NC(=O)[C@@H]2CCC[C@H](C(=O)O)C2)nc1-c1cc(F)cc(F)c1` (relative stereo) [Example 114, Cis-3-[5-cyano-4-(3,5-difluorophenyl)-1,3-thiazol-2-ylcarbamoyl]cyclohexanecarboxylic Acid], the results for the Ki in assay [1] and in assay [2] were 32 nM and greater than 10000 nM, respectively.
Regarding `CC(C)(CCC(=O)O)C(=O)Nc1nc(-c2ccccc2)c(C#N)s1` [Example 2, 4-(5-cyano-4-phenyl-1,3-thiazol-2-ylcarbamoyl)-4-methylpentanoic Acid], the values for the Ki in assay [1] and in assay [2] were 43 nM and greater than 10000 nM, respectively.
Regarding `N#Cc1sc(NC(=O)C2CCC(C(=O)O)C2)nc1-c1ccccc1` (stereo not shown) [Example 5, 3-(5-cyano-4-phenyl-1,3-thiazol-2-ylcarbamoyl)cyclopentane Carboxylic Acid], the values for the Ki in assay [1] and in assay [2] were 6.4 nM and 940 nM, respectively.
Taken in the same sequence, the figures for `N#Cc1sc(NC(=O)[C@H]2CC[C@@H](C(=O)O)CC2)nc1-c1ccccc1` [Example 10, Cis-4-(5-cyano-4-phenyl-1,3-thiazol-2-ylcarbamoyl)cyclohexane Carboxylic Acid] were 7 nM and 1080 nM.
`N#Cc1sc(NC(=O)[C@H]2CC[C@H](C(=O)O)CC2)nc1-c1cccc(Cl)c1` [Example 36, trans-4-[4-(3-chlorophenyl)-5-cyano-1,3-thiazol-2-ylcarbamoyl]cyclohexanecarboxylic Acid]: the Ki was determined as 25 nM in assay [1] and 487 nM in assay [2].
On the same counts, the results for `CC(C)(CCC(=O)O)C(=O)Nc1nc(-c2cccc(F)c2)c(C#N)s1` [Example 68, 4-[5-cyano-4-(3-fluorophenyl)-1,3-thiazol-2-ylcarbamoyl]-4-methylpentanoic Acid] are 51 nM and greater than 4000 nM.
On the same counts, the results for `N#Cc1sc(NC(=O)[C@H]2CC[C@@H](C(=O)O)CC2)nc1-c1cccc(F)c1` [Example 77, Cis-4-[5-cyano-4-(3-fluorophenyl)-1,3-thiazol-2-ylcarbamoyl]cyclohexanecarboxylic Acid] are 6 nM and 776 nM.
